From PMC6757289, “Design and Characterization of SGK3-PROTAC1, an Isoform Specific SGK3 Kinase PROTAC Degrader” (ACS Chemical Biology, 2019)
Where two headings read alike, the source gives them in different places.

Key:
Experiment in all cases: kinase profiling panel
Format in all cases: biochemical
Conditions in all cases: read-out: % Activity Remaining
MAP4K3 = target: T1, MAP4K3 (Homo sapiens, UniProt Q8IVH8)
T1 sequence (Q8IVH8 1-894): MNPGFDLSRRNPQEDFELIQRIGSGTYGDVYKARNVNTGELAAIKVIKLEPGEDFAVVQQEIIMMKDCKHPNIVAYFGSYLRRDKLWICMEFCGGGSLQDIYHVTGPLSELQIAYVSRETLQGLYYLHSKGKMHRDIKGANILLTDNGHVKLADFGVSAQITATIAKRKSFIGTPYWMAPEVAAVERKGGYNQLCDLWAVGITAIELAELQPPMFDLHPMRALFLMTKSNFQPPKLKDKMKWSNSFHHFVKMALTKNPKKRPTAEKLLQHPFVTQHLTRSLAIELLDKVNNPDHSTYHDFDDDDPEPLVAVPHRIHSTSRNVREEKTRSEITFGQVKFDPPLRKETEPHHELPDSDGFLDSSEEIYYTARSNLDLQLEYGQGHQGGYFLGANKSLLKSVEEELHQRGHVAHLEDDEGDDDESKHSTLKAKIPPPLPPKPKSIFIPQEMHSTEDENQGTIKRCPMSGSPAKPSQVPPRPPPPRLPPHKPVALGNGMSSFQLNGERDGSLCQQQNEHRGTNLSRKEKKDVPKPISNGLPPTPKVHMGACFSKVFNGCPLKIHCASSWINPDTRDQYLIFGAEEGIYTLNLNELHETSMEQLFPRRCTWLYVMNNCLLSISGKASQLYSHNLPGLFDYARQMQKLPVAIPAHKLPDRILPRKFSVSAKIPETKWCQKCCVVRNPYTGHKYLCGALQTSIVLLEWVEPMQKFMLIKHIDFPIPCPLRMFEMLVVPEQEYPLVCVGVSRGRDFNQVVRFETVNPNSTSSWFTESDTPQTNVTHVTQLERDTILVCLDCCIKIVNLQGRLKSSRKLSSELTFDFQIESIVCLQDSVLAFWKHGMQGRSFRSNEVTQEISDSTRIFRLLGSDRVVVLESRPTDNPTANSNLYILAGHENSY
Text: (§1) Protein kinase profiling against a Dundee panel of 140 protein kinases was undertaken at the International Centre for Protein Kinase Profiling. The result for each kinase was presented as a mean kinase activity of the reaction taken in triplicate relative to a control sample treated with DMSO. Assay conditions and abbreviations are available at http://www.kinase-screen.mrc.ac.uk.

MSK1 = MSK1 (Homo sapiens, UniProt O75582)
MSK1, sequence (O75582 whole entry): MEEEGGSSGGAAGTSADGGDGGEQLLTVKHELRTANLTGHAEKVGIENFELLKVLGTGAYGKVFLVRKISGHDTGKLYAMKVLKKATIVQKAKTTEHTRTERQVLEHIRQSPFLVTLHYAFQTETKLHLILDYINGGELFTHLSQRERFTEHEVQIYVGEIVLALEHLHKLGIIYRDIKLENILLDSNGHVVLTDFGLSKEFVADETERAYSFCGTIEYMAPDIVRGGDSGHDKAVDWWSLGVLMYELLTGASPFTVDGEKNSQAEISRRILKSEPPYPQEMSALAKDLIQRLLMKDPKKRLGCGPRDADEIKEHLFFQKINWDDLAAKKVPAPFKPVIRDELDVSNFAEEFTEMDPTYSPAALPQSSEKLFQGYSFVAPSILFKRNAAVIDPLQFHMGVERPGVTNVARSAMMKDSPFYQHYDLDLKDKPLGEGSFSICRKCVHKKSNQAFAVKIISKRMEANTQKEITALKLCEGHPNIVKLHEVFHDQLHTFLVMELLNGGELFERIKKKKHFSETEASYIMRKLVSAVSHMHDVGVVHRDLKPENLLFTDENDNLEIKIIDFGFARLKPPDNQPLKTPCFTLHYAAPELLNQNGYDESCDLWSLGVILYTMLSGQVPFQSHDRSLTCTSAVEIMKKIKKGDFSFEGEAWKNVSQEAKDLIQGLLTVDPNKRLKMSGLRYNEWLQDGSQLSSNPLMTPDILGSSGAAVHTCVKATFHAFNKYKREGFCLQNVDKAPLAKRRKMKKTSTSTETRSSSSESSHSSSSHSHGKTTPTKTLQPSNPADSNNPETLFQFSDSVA
Text: as §1

FGF-R1 = FGF-R1 (Homo sapiens, UniProt P11362)
FGF-R1, sequence (P11362 22-822): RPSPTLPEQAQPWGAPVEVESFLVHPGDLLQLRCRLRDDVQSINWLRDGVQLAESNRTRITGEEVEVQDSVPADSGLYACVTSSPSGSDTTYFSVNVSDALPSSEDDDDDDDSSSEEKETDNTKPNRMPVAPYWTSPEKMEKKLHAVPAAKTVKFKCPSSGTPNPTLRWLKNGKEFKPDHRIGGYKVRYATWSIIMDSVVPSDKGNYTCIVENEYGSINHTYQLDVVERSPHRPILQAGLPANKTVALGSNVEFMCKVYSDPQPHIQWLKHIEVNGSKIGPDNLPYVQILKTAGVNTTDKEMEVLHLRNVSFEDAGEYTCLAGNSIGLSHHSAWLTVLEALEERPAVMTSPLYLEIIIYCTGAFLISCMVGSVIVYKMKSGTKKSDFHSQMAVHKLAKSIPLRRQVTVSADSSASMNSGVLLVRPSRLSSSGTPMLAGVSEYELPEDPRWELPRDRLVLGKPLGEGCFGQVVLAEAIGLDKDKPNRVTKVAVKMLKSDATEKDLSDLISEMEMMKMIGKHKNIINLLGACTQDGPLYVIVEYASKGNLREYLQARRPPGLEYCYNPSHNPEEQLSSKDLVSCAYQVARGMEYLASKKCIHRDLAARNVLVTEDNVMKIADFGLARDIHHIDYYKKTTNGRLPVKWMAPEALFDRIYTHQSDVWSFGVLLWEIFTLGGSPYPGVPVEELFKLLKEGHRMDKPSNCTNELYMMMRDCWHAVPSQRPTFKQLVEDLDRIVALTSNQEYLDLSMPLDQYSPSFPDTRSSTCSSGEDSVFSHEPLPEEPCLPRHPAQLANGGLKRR
Text: as §1

CAMKK beta = CAMKK beta (Homo sapiens, UniProt Q96RR4)
CAMKK beta, sequence (Q96RR4 whole entry): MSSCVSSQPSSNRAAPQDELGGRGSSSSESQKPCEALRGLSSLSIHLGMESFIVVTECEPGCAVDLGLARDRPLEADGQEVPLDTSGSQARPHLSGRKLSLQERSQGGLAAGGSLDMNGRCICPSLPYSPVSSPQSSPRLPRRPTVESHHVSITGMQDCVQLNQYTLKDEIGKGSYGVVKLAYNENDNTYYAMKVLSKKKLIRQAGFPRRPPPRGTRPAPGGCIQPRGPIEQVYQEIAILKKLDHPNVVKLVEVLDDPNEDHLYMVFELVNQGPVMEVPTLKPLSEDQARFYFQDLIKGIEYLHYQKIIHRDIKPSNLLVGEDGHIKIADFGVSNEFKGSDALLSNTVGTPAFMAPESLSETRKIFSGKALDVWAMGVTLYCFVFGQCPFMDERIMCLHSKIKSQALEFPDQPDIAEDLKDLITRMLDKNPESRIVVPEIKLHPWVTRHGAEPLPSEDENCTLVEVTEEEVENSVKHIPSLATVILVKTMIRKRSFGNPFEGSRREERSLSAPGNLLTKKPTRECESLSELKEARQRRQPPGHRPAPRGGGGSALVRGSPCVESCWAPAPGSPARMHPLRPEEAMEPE
Text: as §1

PIM1 = PIM1 (Homo sapiens, UniProt P11309)
PIM1, sequence (P11309 whole entry): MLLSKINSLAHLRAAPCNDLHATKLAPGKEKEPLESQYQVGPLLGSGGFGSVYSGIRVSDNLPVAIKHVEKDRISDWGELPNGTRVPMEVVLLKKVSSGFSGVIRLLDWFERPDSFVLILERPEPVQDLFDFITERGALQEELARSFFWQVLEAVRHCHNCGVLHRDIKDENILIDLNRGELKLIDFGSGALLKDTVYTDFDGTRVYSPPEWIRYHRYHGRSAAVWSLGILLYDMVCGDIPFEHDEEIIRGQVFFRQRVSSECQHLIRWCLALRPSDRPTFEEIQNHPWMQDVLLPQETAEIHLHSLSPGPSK
Text: as §1

PAK6 = PAK6 (Homo sapiens, UniProt Q9NQU5)
PAK6, sequence (Q9NQU5 whole entry): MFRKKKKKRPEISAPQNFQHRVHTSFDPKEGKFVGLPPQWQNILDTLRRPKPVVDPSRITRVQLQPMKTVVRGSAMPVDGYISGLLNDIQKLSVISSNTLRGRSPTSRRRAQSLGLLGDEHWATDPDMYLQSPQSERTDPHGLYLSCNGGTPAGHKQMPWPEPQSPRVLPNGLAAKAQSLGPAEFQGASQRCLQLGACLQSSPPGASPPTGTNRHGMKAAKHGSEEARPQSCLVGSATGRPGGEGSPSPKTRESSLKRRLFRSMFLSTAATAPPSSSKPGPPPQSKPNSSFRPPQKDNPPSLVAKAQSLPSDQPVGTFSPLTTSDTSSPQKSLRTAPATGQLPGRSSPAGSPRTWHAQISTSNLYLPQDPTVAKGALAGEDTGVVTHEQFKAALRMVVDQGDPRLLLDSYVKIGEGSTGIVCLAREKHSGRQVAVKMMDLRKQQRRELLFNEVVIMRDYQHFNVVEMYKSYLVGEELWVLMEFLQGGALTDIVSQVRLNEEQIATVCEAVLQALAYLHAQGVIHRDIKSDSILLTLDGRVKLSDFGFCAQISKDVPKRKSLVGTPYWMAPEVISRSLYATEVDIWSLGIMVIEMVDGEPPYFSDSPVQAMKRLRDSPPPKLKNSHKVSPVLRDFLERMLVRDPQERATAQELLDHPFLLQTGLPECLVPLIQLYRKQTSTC
Text: as §1

ERK2 = ERK2 (Homo sapiens, UniProt P28482)
Text: as §1

PIM2 = PIM2 (Homo sapiens, UniProt Q9P1W9)
PIM2, sequence (Q9P1W9 whole entry): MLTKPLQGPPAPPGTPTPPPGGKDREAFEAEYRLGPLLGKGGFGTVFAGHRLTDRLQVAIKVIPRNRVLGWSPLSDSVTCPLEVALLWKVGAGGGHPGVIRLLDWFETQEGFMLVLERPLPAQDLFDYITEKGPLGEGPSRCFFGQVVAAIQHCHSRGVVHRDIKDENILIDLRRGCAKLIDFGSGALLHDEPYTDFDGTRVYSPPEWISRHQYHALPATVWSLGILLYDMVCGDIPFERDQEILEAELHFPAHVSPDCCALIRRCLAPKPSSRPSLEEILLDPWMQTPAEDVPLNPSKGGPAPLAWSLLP
Text: as §1

HIPK2 = HIPK2 (Homo sapiens, UniProt Q9H2X6)
HIPK2, sequence (Q9H2X6 whole entry): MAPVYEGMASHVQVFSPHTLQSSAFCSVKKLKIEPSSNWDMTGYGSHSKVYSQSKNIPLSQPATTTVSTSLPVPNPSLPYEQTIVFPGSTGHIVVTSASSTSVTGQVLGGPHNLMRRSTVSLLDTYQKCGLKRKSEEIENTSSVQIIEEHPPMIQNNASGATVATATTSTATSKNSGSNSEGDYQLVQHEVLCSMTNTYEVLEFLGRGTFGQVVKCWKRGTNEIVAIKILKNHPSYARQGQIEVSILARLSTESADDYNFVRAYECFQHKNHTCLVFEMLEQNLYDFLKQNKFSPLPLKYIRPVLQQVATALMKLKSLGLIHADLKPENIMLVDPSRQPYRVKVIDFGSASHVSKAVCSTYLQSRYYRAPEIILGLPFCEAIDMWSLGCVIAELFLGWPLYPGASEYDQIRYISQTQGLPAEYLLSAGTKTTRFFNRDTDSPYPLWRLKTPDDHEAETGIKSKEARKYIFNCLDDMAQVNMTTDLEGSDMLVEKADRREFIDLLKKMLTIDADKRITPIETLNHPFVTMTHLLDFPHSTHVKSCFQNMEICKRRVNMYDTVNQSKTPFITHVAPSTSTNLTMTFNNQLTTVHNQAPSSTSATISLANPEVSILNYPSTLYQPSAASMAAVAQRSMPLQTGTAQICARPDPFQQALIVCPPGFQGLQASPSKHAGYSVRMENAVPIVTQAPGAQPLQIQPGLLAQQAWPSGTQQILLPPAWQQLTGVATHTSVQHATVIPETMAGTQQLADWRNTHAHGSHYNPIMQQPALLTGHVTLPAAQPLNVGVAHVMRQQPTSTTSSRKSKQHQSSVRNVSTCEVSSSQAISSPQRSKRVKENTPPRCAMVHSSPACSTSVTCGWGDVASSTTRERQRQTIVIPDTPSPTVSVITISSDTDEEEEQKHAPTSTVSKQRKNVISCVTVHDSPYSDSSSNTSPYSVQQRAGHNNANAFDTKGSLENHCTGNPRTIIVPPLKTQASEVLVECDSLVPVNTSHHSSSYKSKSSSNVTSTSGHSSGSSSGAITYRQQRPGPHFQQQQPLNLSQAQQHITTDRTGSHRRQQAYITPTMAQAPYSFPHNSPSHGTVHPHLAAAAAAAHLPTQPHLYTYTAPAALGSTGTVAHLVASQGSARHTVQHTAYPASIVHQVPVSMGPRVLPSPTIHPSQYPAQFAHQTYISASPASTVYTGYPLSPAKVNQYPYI
Text: as §1

BRSK2 = target: T2, BRSK2 (Homo sapiens, UniProt Q8IWQ3)
T2 sequence (Q8IWQ3 1-736): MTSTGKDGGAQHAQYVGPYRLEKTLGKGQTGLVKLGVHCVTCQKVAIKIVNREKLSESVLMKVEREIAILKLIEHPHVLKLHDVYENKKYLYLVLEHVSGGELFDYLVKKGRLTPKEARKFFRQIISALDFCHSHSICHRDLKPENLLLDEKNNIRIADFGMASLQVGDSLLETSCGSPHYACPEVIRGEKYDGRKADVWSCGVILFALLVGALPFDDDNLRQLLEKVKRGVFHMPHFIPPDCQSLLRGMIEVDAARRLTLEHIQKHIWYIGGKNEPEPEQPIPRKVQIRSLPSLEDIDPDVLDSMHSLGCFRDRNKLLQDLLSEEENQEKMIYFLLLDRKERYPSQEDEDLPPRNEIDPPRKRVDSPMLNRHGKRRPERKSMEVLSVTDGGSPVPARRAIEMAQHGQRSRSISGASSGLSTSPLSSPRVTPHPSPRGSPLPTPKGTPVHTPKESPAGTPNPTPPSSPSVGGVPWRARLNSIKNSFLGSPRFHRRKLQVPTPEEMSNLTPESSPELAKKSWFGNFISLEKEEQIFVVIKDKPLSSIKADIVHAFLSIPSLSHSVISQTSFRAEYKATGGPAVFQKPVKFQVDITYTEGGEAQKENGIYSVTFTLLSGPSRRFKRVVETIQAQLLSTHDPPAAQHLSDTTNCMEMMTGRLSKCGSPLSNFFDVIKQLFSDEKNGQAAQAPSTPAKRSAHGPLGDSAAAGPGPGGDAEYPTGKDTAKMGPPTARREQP
Text: as §1

| Compound | remaining activity at 1 µM (MAP4K3) [%] | remaining activity at 1 µM (MSK1) [%] | remaining activity at 1 µM (FGF-R1) [%] | remaining activity at 1 µM (CAMKK beta) [%] | remaining activity at 1 µM (PIM1) [%] | remaining activity at 1 µM (PAK6) [%] | remaining activity at 1 µM (ERK2) [%] | remaining activity at 1 µM (PIM2) [%] | remaining activity at 1 µM (HIPK2) [%] | remaining activity at 1 µM (BRSK2) [%] | remaining activity at 1 µM (MAP4K3; 1 µM) [%] | remaining activity at 1 µM (MSK1; 1 µM) [%] | remaining activity at 1 µM (FGF-R1; 1 µM) [%] | remaining activity at 1 µM (CAMKK beta; 1 µM) [%] | remaining activity at 1 µM (PIM1; 1 µM) [%] | remaining activity at 1 µM (PAK6; 1 µM) [%] | remaining activity at 1 µM (ERK2; 1 µM) [%] | remaining activity at 1 µM (PIM2; 1 µM) [%] | remaining activity at 1 µM (HIPK2; 1 µM) [%] | remaining activity at 1 µM (BRSK2; 1 µM) [%] |
| --- | --- | --- | --- | --- | --- | --- | --- | --- | --- | --- | --- | --- | --- | --- | --- | --- | --- | --- | --- | --- |
| COc1ccc(Cl)c(S(=O)(=O)Nc2ccc(-c3nc(OC[C@H]4CNCCO4)c4c(C)n[nH]c4n3)cc2)c1 [290-R, reference compound] | 2 | 10 | 104 | 77 | 83 | 94 | 109 | 105 | 50 | 102 |  |  |  |  |  |  |  |  |  |  |
| Cc1ccc(F)c(S(=O)(=O)Nc2ccc(-c3nc(OC[C@H]4CNCCO4)c4cn[nH]c4n3)cc2)c1 [308-R, reference compound] | 8 | 7 | 115 | 106 | 104 | 80 | 110 | 127 | 47 | 82 |  |  |  |  |  |  |  |  |  |  |
| Cc1ccc(F)c(S(=O)(=O)Nc2ccc(-c3nc(OC[C@H]4CN(CCCCCCOCCOCCOCC(=O)N[C@H](C(=O)N5C[C@H](O)C[C@H]5C(=O)NCc5ccc(-c6scnc6C)cc5)C(C)(C)C)CCO4)c4cn[nH]c4n3)cc2)c1 [SGK3-PROTAC1] |  |  |  |  |  |  |  |  |  |  | 99 | 50 | 108 | 99 | 94 | 98 | 104 | 98 | 109 | 97 |
| Cc1ccc(F)c(S(=O)(=O)Nc2ccc(-c3nc(OC[C@H]4CN(CCCCCCOCCOCCOCC(=O)N[C@H](C(=O)N5C[C@@H](O)C[C@H]5C(=O)NCc5ccc(-c6scnc6C)cc5)C(C)(C)C)CCO4)c4cn[nH]c4n3)cc2)c1 [cisSGK3-PROTAC1] |  |  |  |  |  |  |  |  |  |  | 95 | 56 | 106 | 108 | 97 | 99 | 95 | 105 | 100 | 101 |
